Assay results taken from ChEMBL document CHEMBL1629662, “Antimicrobial activity of prulifloxacin tested against a worldwide collection of gastroenteritis-producing pathogens, including those causing traveler's diarrhea” (2009).

Experiments:
Escherichia coli [1] = assay: Antibacterial activity against Escherichia coli by broth microdilution method; format: functional
Escherichia coli [2] = assay: Antibacterial activity against Escherichia coli assessed as percent susceptible isolates by broth microdilution method; format: functional
Escherichia coli [3] = assay: Antibacterial activity against Escherichia coli assessed as percent resistant isolates by broth microdilution method; format: functional
Salmonella typhimurium [4] = assay: Antibacterial activity against Salmonella enterica serovar Typhimurium by broth microdilution method; format: functional, Salmonella enterica subsp. enterica serovar Typhimurium
Salmonella typhimurium [5] = assay: Antibacterial activity against Salmonella enterica serovar Typhimurium assessed as percent resistant isolates by broth microdilution method; format: functional, Salmonella enterica subsp. enterica serovar Typhimurium; settings: pooled result: one value given for 8 cell lines, strains, targets or settings
Salmonella enteritidis [6] = assay: Antibacterial activity against Salmonella enterica serovar Enteritidis by broth microdilution method; format: functional, Salmonella enterica subsp. enterica serovar Enteritidis
Salmonella enteritidis [7] = assay: Antibacterial activity against Salmonella enterica serovar Enteritidis assessed as percent susceptible isolates by broth microdilution method; format: functional, Salmonella enterica subsp. enterica serovar Enteritidis; settings: pooled result: one value given for 5 cell lines, strains, targets or settings
Salmonella typhi [8] = assay: Antibacterial activity against Salmonella enterica serovar Typhi by broth microdilution method; format: functional, Salmonella enterica subsp. enterica serovar Typhi
Salmonella typhi [9] = assay: Antibacterial activity against Salmonella enterica serovar Typhi assessed as percent susceptible isolates by broth microdilution method; format: functional, Salmonella enterica subsp. enterica serovar Typhi
Salmonella paratyphi [10] = assay: Antibacterial activity against Salmonella enterica serovar Paratyphi by broth microdilution method; format: functional, Salmonella enterica subsp. enterica serovar Paratyphi A
Salmonella paratyphi [11] = assay: Antibacterial activity against Salmonella enterica serovar Paratyphi assessed as percent susceptible isolates by broth microdilution method; format: functional, Salmonella enterica subsp. enterica serovar Paratyphi A
[12] = Antibacterial activity against Salmonella enterica serovar Choleraesuis by broth microdilution method; format: functional, Salmonella enterica subsp. enterica serovar Choleraesuis
[13] = Antibacterial activity against Salmonella enterica serovar Choleraesuis assessed as percent susceptible isolates by broth microdilution method; format: functional, Salmonella enterica subsp. enterica serovar Choleraesuis
[14] = Antibacterial activity against Salmonella enterica serovar Newport by broth microdilution method; format: functional, Salmonella enterica subsp. enterica serovar Newport
[15] = Antibacterial activity against Salmonella enterica serovar Virchow by broth microdilution method; format: functional, Salmonella enterica subsp. enterica serovar Virchow
[16] = Antibacterial activity against Salmonella enterica serovar Heidelberg by broth microdilution method; format: functional, Salmonella enterica subsp. enterica serovar Heidelberg
Shigella sonnei [17] = assay: Antibacterial activity against Shigella sonnei by broth microdilution method; format: functional
Shigella sonnei [18] = assay: Antibacterial activity against Shigella sonnei assessed as percent resistant isolates by broth microdilution method; format: functional; settings: pooled result: one value given for 4 cell lines, strains, targets or settings
Shigella flexneri = assay: Antibacterial activity against Shigella flexneri by broth microdilution method; format: functional
Shigella boydii [19] = assay: Antibacterial activity against Shigella boydii by broth microdilution method; format: functional
Shigella boydii [20] = assay: Antibacterial activity against Shigella boydii assessed as percent susceptible isolates by broth microdilution method; format: functional; settings: pooled result: one value given for 3 cell lines, strains, targets or settings
Shigella dysenteriae [21] = assay: Antibacterial activity against Shigella dysenteriae by broth microdilution method; format: functional
Shigella dysenteriae [22] = assay: Antibacterial activity against Shigella dysenteriae assessed as percent susceptible isolates by broth microdilution method; format: functional
Yersinia enterocolitica [23] = assay: Antibacterial activity against Yersinia enterocolitica by broth microdilution method; format: functional
Yersinia enterocolitica [24] = assay: Antibacterial activity against Yersinia enterocolitica assessed as percent susceptible isolates by broth microdilution method; format: functional
Yersinia enterocolitica [25] = assay: Antibacterial activity against Yersinia enterocolitica assessed as percent resistant isolates by broth microdilution method; format: functional
[26] = test system: Yersinia pseudotuberculosis; assay: Antibacterial activity against Yersinia pseudotuberculosis by broth microdilution method; format: functional

CCn1cc(C(=O)O)c(=O)c2ccc(C)nc21 [NALIDIXIC ACID]
MIC50 (Escherichia coli [1]): ≤ 8 µg/mL
MIC90 (Escherichia coli [1]): ≤ 8 µg/mL
Activity (Escherichia coli [2]): 95%
Activity (Escherichia coli [3]): 5%
MIC50 (Salmonella typhimurium [4]): ≤ 8 µg/mL
MIC90 (Salmonella typhimurium [4]): > 32 µg/mL
Activity (Salmonella typhimurium [5]): 15.8%
MIC50 (Salmonella enteritidis [6]): ≤ 8 µg/mL
MIC90 (Salmonella enteritidis [6]): > 32 µg/mL
Activity (Salmonella enteritidis [7]): 84.2%
MIC50 (Salmonella typhi [8]): ≤ 8 µg/mL
MIC90 (Salmonella typhi [8]): > 32 µg/mL
Activity (Salmonella typhi [9]): 84.2%
MIC50 (Salmonella paratyphi [10]): ≤ 8 µg/mL
MIC90 (Salmonella paratyphi [10]): > 32 µg/mL
Activity (Salmonella paratyphi [11]): 84.2%
MIC50 [12]: ≤ 8 µg/mL
MIC90 [12]: > 32 µg/mL
Activity [13]: 84.2%
MIC50 [14]: ≤ 8 µg/mL
MIC90 [14]: > 32 µg/mL
MIC50 [15]: ≤ 8 µg/mL
MIC90 [15]: > 32 µg/mL
MIC50 [16]: ≤ 8 µg/mL
MIC90 [16]: > 32 µg/mL
MIC50 (Shigella sonnei [17]): ≤ 8 µg/mL
MIC90 (Shigella sonnei [17]): ≤ 8 µg/mL
Activity (Shigella sonnei [18]): 3%
MIC50 (Shigella flexneri): ≤ 8 µg/mL
MIC90 (Shigella flexneri): ≤ 8 µg/mL
MIC50 (Shigella boydii [19]): ≤ 8 µg/mL
MIC90 (Shigella boydii [19]): ≤ 8 µg/mL
Activity (Shigella boydii [20]): 97%
MIC50 (Shigella dysenteriae [21]): ≤ 8 µg/mL
MIC90 (Shigella dysenteriae [21]): ≤ 8 µg/mL
Activity (Shigella dysenteriae [22]): 97%
MIC50 (Yersinia enterocolitica [23]): ≤ 8 µg/mL
MIC90 (Yersinia enterocolitica [23]): ≤ 8 µg/mL
Activity (Yersinia enterocolitica [24]): 93.5%
Activity (Yersinia enterocolitica [25]): 6.5%
MIC50 [26]: ≤ 8 µg/mL
MIC90 [26]: ≤ 8 µg/mL
